For test [1], the system named is patient derived pancreatic tumor fragment. Kind of test: 10 patient derived pancreatic tumor models in nude mice. Format: in vivo, human. On the procedure:
Combination with MEK inhibitor N-((S)-2,3-dihydroxy-propyl)-3-(2-fluoro-4-iodo-phenylamino)-isonicotinamide in 10 patient derived pancreatic tumor models:
Method: Female NMRI nude mice (6-8 week old) where subcutaneously implanted with a patient derived pancreatic tumor fragment. Animals were divided into treatments groups (ten animals in one group) after the tumors were established. Respective groups were administered orally with the 3-(1-{3-[5-(1-methyl-piperidin-4-ylmethoxy)-pyrimidin-2-yl]-benzyl}-6-oxo -1,6-dihydro-pyridazin-3-yl)-benzonitrile hydrochloride hydrate (100 mg/kg) or N-((S)-2,3-dihydroxy-propyl)-3-(2-fluoro-4-iodo-phenylamino)-isonicotinamide (100 mg/kg, MTD) for 5 days on and 2 days off in monotherapy or in combination. At the end of treatment TC values were calculated and tumor regrowth was observed. Statistical analysis has been done with one way ANOVO. […] All treatments were well tolerated.

The subject of test [2] is human KP-4 pancreatic tumor cells. Kind of test: human KP-4 pancreatic tumor xenograft model in nude mice. The test is classed as in vivo. The conditions noted are these: female BalBc nude mice, s.c. KP-4 tumors, 5 days on and 2 days off, end of treatment. In general terms: In xenograft studies the graft and the host belong to different species.
Method: Method: Female BalBc nude mice (6-8 week old) where subcutaneously injected with human KP-4 pancreatic tumor cells and were divided into treatment groups (ten animals in one group) after the tumors were established.
Respective groups were administered orally with the 3-(1-{3-[5-(1-methyl-piperidin-4-ylmethoxy)-pyrimidin-2-yl]-benzyl}-6-oxo-1,6-dihydro-pyridazin -3-yl)-benzonitrile hydrochloride hydrate (100 mg/kg) or N-((S)-2,3-dihydroxy-propyl)-3-(2-fluoro-4-iodo-phenylamino)-isonicotinamide (50 mg/kg) for 5 days on and 2 days off in monotherapy or in combination. […] Statistical analysis has been done with one way ANOVA.

“And” between values parts separate entries of the source, which are not always exact repeats. Equal values may be shown once. A value given as a limit tells only on which side of the number the result lay.

On to `CN1CCC(COc2cnc(-c3cccc(Cn4nc(-c5cccc(C#N)c5)ccc4=O)c3)nc2)CC1.Cl.O` [3-(1-{3-[5-(1-methyl-piperidin-4-ylmethoxy)-pyrimidin-2-yl]-benzyl}-6-oxo-1,6-dihydro-pyridazin-3-yl)-benzonitrile hydrochloride hydrate], for which the TC values in test [1] (female NMRI nude mice; monotherapy 100 mg/kg orally, 5 days on and 2 days off; end of treatment; the models with anti-tumor activity; hydrochloride hydrate)) is 43% and 50%. Further, in test [2] (monotherapy 100 mg/kg orally), the TC value stood at 35%.

As for `O=C(NC[C@H](O)CO)c1ccncc1Nc1ccc(I)cc1F` [N-((S)-2,3-dihydroxy-propyl)-3-(2-fluoro-4-iodo-phenylamino)-isonicotinamide], the TC values in test [1] (female NMRI nude mice, monotherapy 100 mg/kg (MTD) orally, 5 days on and 2 days off, end of treatment, all 10 models) is less than 55%. The “models with anti-tumor activity” value in test [1] (female NMRI nude mice, monotherapy 100 mg/kg orally, 5 days on and 2 days off, out of 10 models) is listed as 10. Besides, the TC value in test [2] (monotherapy 50 mg/kg orally) amounted to 42%.

(Values after US20150297594A1, “Combination of a 6-oxo-1,6-dihydro-pyridazine derivative having anti-cancer activity with a MEK inhibitor” (MERCK PATENT GMBH, priority 2012, published 2015).)
